Like-named read-outs stand apart in the source and are kept apart here.
Molecular target: T1, hMCHR (MCH receptor) (Homo sapiens, UniProt Q99705)
T1 construct: (or internally produced); host or cells: CHO (Chinese hamster ovary) cells, membrane preparation
Test: MCH Assay PCOP Protocol ([125I]-MCH SPA binding to hMCHR-CHO membranes);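 for Activity (Ki range): A 0.4–50 nM B 51–500 nM C 501–2500 nM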
Procedure, shortened: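 SPA binding with 10 μg hMCHR-CHO membranes and WGA-SPA beads in 25 mM HEPES pH 7.4, 10 mM NaCl, 10 mM MgCl2, 5 mM MnCl2, 0.1% BSA.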

[1] = [125I]-MCH binding to hMCHR-CHO membranes, class symbols for ranges of Ki, read-out: Activity (Ki range)
[2] = [125I]-MCH SPA binding, hMCHR-CHO membranes, Ki class ranges, read-out: Activity (range of Ki)

T1 sequence (Q99705 whole entry): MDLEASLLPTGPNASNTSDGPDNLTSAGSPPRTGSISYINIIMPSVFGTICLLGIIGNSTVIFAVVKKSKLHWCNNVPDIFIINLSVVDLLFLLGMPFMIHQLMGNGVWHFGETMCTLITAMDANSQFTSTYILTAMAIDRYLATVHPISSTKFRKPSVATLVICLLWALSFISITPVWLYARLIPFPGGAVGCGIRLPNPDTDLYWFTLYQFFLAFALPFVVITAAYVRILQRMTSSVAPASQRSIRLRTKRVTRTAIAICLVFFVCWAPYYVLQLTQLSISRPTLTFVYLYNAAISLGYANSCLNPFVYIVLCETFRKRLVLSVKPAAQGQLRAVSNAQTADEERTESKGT

SMILES | Ki [1] | Ki [2]
O=C(NCC(CCN1CCNCC1)c1ccc(Cl)c(Cl)c1)Nc1cc(C(F)(F)F)cc(C(F)(F)F)c1 (stereo not shown) [Example 371] | 501 to 2500 nM | 
O=S(=O)(NCC(CCN1CCC(N2CCCCC2)CC1)c1ccc(Cl)c(Cl)c1)c1ccc(Cl)c(Cl)c1 (stereo not shown) [Example 372] | 501 to 2500 nM | 
O=C(NCC(CCN1CCC(N2CCCCC2)CC1)c1ccc(Cl)c(Cl)c1)Nc1cc(C(F)(F)F)ccc1F (stereo not shown) [Example 373] | 501 to 2500 nM | 
O=C(NCC(CCN1CCC(N2CCCCC2)CC1)c1ccc(Cl)c(Cl)c1)Nc1ccc(F)cc1 (stereo not shown) [Example 374] | 501 to 2500 nM | 
N#Cc1cccc(NC(=O)NCC(CCN2CCC(N3CCCCC3)CC2)c2ccc(Cl)c(Cl)c2)c1 (stereo not shown) [Example 375] | 501 to 2500 nM | 
O=S(=O)(NCC(CCN1CCC(N2CCCCC2)CC1)c1ccc(Cl)c(Cl)c1)c1cccc(C(F)(F)F)c1 (stereo not shown) [Example 376] | 501 to 2500 nM | 
Cc1cc(C)cc(NC(=O)NCC(CCN2CCC(N3CCCCC3)CC2)c2ccc(Cl)c(Cl)c2)c1 (stereo not shown) [Example 377] | 501 to 2500 nM | 
O=C(NCC(CCN1CCC(N2CCCCC2)CC1)c1ccc(F)c(F)c1)Nc1ccc(F)c(Cl)c1 (stereo not shown) [Example 378] | 501 to 2500 nM | 
O=C(NCc1cc(C(F)(F)F)cc(C(F)(F)F)c1)C(CCNC1CCC1)c1ccc(Cl)c(Cl)c1 (stereo not shown) [Example 379] | 501 to 2500 nM | 
O=C(NCc1cc(C(F)(F)F)cc(C(F)(F)F)c1)C(CCNCCN1CCCC1)c1ccc(Cl)c(Cl)c1 (stereo not shown) [Example 380] | 501 to 2500 nM | 
O=C(NCc1cc(C(F)(F)F)cc(C(F)(F)F)c1)C(CCNCCc1c[nH]c2cc(F)ccc12)c1ccc(Cl)c(Cl)c1 (stereo not shown) [Example 381] | 501 to 2500 nM | 
CC1CCN(CCC(C(=O)NCc2cc(C(F)(F)F)cc(C(F)(F)F)c2)c2ccc(Cl)c(Cl)c2)CC1 (stereo not shown) [Example 382] | 501 to 2500 nM | 
O=C(NCc1cc(C(F)(F)F)cc(C(F)(F)F)c1)C(CCN1CCCCC1CO)c1ccc(Cl)c(Cl)c1 (stereo not shown) [Example 383] | 501 to 2500 nM | 
CC(C)OCCCNCCC(C(=O)NCc1cc(C(F)(F)F)cc(C(F)(F)F)c1)c1ccc(Cl)c(Cl)c1 (stereo not shown) [Example 384] | 501 to 2500 nM | 
O=C(NCc1cc(C(F)(F)F)cc(C(F)(F)F)c1)C(CCNCCc1c[nH]c2ccccc12)c1ccc(Cl)c(Cl)c1 (stereo not shown) [Example 385] | 501 to 2500 nM | 
O=C(NCc1cc(C(F)(F)F)cc(C(F)(F)F)c1)C(CCNCCc1c[nH]c2ccc(F)cc12)c1ccc(Cl)c(Cl)c1 (stereo not shown) [Example 386] | 501 to 2500 nM | 
O=C(NCc1cc(C(F)(F)F)cc(C(F)(F)F)c1)C(CCN1CCCC(CO)C1)c1ccc(Cl)c(Cl)c1 (stereo not shown) [Example 387] | 501 to 2500 nM | 
O=C(NCc1cc(C(F)(F)F)cc(C(F)(F)F)c1)C(CCNCCCn1ccnc1)c1ccc(Cl)c(Cl)c1 (stereo not shown) [Example 388] | 501 to 2500 nM | 
O=C(NCc1cc(C(F)(F)F)cc(C(F)(F)F)c1)C(CCN1CCC(O)CC1)c1ccc(Cl)c(Cl)c1 (stereo not shown) [Example 389] | 501 to 2500 nM | 
O=C(NCc1cc(C(F)(F)F)cc(C(F)(F)F)c1)C(CCN1CCC(O)(c2ccc(Cl)cc2)CC1)c1ccc(Cl)c(Cl)c1 (stereo not shown) [Example 390] | 501 to 2500 nM | 
Cc1cc(CNC(=O)C(CCN2CCCC(C)C2)c2ccc(Cl)c(Cl)c2)cc(C(F)(F)F)c1 (stereo not shown) [Example 391] | 501 to 2500 nM | 

SMILES | Ki [1] | Ki [2]
O=C(NCC(CCNCCc1ccc(O)cc1)c1ccc(Cl)c(Cl)c1)c1cc(C(F)(F)F)cc(C(F)(F)F)c1 (stereo not shown) [Example 392] | 51 to 500 nM | 
CN(CCC(CNC(=O)c1cc(C(F)(F)F)cc(C(F)(F)F)c1)c1ccc(Cl)c(Cl)c1)CC(=O)O (stereo not shown) [Example 393] | 501 to 2500 nM | 
COc1ccc2c(CCNCCC(CNC(=O)c3cc(C(F)(F)F)cc(C(F)(F)F)c3)c3ccc(Cl)c(Cl)c3)c[nH]c2c1 (stereo not shown) [Example 394] | 501 to 2500 nM | 
CCCN(CC)CCC(CNC(=O)c1cc(C(F)(F)F)cc(C(F)(F)F)c1)c1ccc(Cl)c(Cl)c1 (stereo not shown) [Example 395] | 501 to 2500 nM | 
COc1ccc2[nH]cc(CCNCCC(CNC(=O)c3cc(C(F)(F)F)cc(C(F)(F)F)c3)c3ccc(Cl)c(Cl)c3)c2c1 (stereo not shown) [Example 396] | 501 to 2500 nM | 
O=C(NCC(CCN1CCc2c([nH]c3ccccc23)C1)c1ccc(Cl)c(Cl)c1)c1cc(C(F)(F)F)cc(C(F)(F)F)c1 (stereo not shown) [Example 397] | 501 to 2500 nM | 
O=C(NCC(CCNC1CCC1)c1ccc(Cl)c(Cl)c1)c1cc(C(F)(F)F)cc(C(F)(F)F)c1 (stereo not shown) [Example 398] | 501 to 2500 nM | 
CC(Cc1c[nH]c2ccc(F)cc12)NCCC(CNC(=O)c1cc(C(F)(F)F)cc(C(F)(F)F)c1)c1ccc(Cl)c(Cl)c1 (stereo not shown) [Example 399] | 501 to 2500 nM | 
O=C(NCC(CCNCCc1c[nH]c2ccccc12)c1ccc(Cl)c(Cl)c1)c1cc(C(F)(F)F)cc(C(F)(F)F)c1 (stereo not shown) [Example 400] | 501 to 2500 nM | 
CCCCN(CCC(CNC(=O)c1cc(C(F)(F)F)cc(C(F)(F)F)c1)c1ccc(Cl)c(Cl)c1)C1CC1 (stereo not shown) [Example 401] | 501 to 2500 nM | 
O=C(NCC(CCN1CCN(c2ccc(O)cc2)CC1)c1ccc(Cl)c(Cl)c1)c1cc(C(F)(F)F)cc(C(F)(F)F)c1 (stereo not shown) [Example 402] | 501 to 2500 nM | 
O=C(NCC(CCN1CCCCC1)c1ccc(Cl)c(Cl)c1)c1cc(C(F)(F)F)cc(C(F)(F)F)c1 (stereo not shown) [Example 403] | 501 to 2500 nM | 
O=C(NCC(CCNCC1CCCO1)c1ccc(Cl)c(Cl)c1)c1cc(C(F)(F)F)cc(C(F)(F)F)c1 (stereo not shown) [Example 404] | 501 to 2500 nM | 
CC1CCN(CCC(CNC(=O)c2cc(C(F)(F)F)cc(C(F)(F)F)c2)c2ccc(Cl)c(Cl)c2)CC1 (stereo not shown) [Example 405] | 501 to 2500 nM | 
O=C(NCC(CCN1CCCC1)c1ccc(Cl)c(Cl)c1)c1cc(C(F)(F)F)cc(C(F)(F)F)c1 (stereo not shown) [Example 406] | 501 to 2500 nM | 
CCN1CCCC1CNCCC(CNC(=O)c1cc(C(F)(F)F)cc(C(F)(F)F)c1)c1ccc(Cl)c(Cl)c1 (stereo not shown) [Example 407] | 501 to 2500 nM | 
CN(CCC(CNC(=O)c1cc(C(F)(F)F)cc(C(F)(F)F)c1)c1ccc(Cl)c(Cl)c1)C1CCCCC1 (stereo not shown) [Example 408] | 501 to 2500 nM | 
CC(C)OCCCNCCC(CNC(=O)c1cc(C(F)(F)F)cc(C(F)(F)F)c1)c1ccc(Cl)c(Cl)c1 (stereo not shown) [Example 409] | 501 to 2500 nM | 
Cc1ccc2[nH]cc(CCNCCC(CNC(=O)c3cc(C(F)(F)F)cc(C(F)(F)F)c3)c3ccc(Cl)c(Cl)c3)c2c1 (stereo not shown) [Example 410] | 501 to 2500 nM | 
O=C(NCC(CCNCCN1CCCC1)c1ccc(Cl)c(Cl)c1)c1cc(C(F)(F)F)cc(C(F)(F)F)c1 (stereo not shown) [Example 411] | 501 to 2500 nM | 
CCN(CC)CCC(CNC(=O)c1cc(C(F)(F)F)cc(C(F)(F)F)c1)c1ccc(Cl)c(Cl)c1 (stereo not shown) [Example 412] | 501 to 2500 nM | 

SMILES | Ki [1] | Ki [2]
CN1CCCC1CCNCCC(CNC(=O)c1cc(C(F)(F)F)cc(C(F)(F)F)c1)c1ccc(Cl)c(Cl)c1 (stereo not shown) [Example 413] | 501 to 2500 nM | 
O=C(NCC(CCNCCCn1ccnc1)c1ccc(Cl)c(Cl)c1)c1cc(C(F)(F)F)cc(C(F)(F)F)c1 (stereo not shown) [Example 414] | 501 to 2500 nM | 
O=C(NCC(CCNCCc1c[nH]c2cc(F)ccc12)c1ccc(Cl)c(Cl)c1)c1cc(C(F)(F)F)cc(C(F)(F)F)c1 (stereo not shown) [Example 415] | 501 to 2500 nM | 
O=C(NCC(CCN1CCC(CNC2(CO)CCCC2)CC1)c1ccc(Cl)c(Cl)c1)c1cc(C(F)(F)F)cc(C(F)(F)F)c1 (stereo not shown) [Example 416] | 501 to 2500 nM | 
CC1CCCN(CCC(CNC(=O)c2cc(C(F)(F)F)cc(C(F)(F)F)c2)c2ccc(Cl)c(Cl)c2)C1 (stereo not shown) [Example 417] |  | 501 to 2500 nM
O=C(NCC(CCN1CCCC1CN1CCCC1)c1ccc(Cl)c(Cl)c1)c1cc(C(F)(F)F)cc(C(F)(F)F)c1 (stereo not shown) [Example 418] |  | 501 to 2500 nM
CC1CCCCN1CCC(CNC(=O)c1cc(C(F)(F)F)cc(C(F)(F)F)c1)c1ccc(Cl)c(Cl)c1 (stereo not shown) [Example 419] |  | 501 to 2500 nM
O=C(NCC(CCNC1c2ccccc2CC1O)c1ccc(Cl)c(Cl)c1)c1cc(C(F)(F)F)cc(C(F)(F)F)c1 (stereo not shown) [Example 420] |  | 501 to 2500 nM
COc1cc(CN(C)CCC(CNC(=O)Nc2cc(C(F)(F)F)cc(C(F)(F)F)c2)c2ccc(Cl)c(Cl)c2)cc(OC)c1OC (stereo not shown) [Example 421] |  | 51 to 500 nM
O=C(NCC(CCN1CCCC1)c1ccc(Cl)c(Cl)c1)Nc1cc(C(F)(F)F)cc(C(F)(F)F)c1 (stereo not shown) [Example 422] |  | 51 to 500 nM
CCN1CCCC1CNCCC(CNC(=O)Nc1cc(C(F)(F)F)cc(C(F)(F)F)c1)c1ccc(Cl)c(Cl)c1 (stereo not shown) [Example 423] |  | 51 to 500 nM
CCCN(CC)CCC(CNC(=O)Nc1cc(C(F)(F)F)cc(C(F)(F)F)c1)c1ccc(Cl)c(Cl)c1 (stereo not shown) [Example 424] |  | 501 to 2500 nM
CN(C)CCCNCCC(CNC(=O)Nc1cc(C(F)(F)F)cc(C(F)(F)F)c1)c1ccc(Cl)c(Cl)c1 (stereo not shown) [Example 425] |  | 501 to 2500 nM
O=C(NCC(CCNCCc1ccc(O)cc1)c1ccc(Cl)c(Cl)c1)Nc1cc(C(F)(F)F)cc(C(F)(F)F)c1 (stereo not shown) [Example 426] |  | 501 to 2500 nM
O=C(NCC(CCN1CCC(O)C1)c1ccc(Cl)c(Cl)c1)Nc1cc(C(F)(F)F)cc(C(F)(F)F)c1 (stereo not shown) [Example 427] |  | 501 to 2500 nM
O=C(NCC(CCNCCN1CCOCC1)c1ccc(Cl)c(Cl)c1)Nc1cc(C(F)(F)F)cc(C(F)(F)F)c1 (stereo not shown) [Example 428] |  | 501 to 2500 nM
O=C(NCC(CCN1CCC(CN2CCCCC2)CC1)c1ccc(Cl)c(Cl)c1)Nc1cc(C(F)(F)F)cc(C(F)(F)F)c1 (stereo not shown) [Example 429] |  | 501 to 2500 nM
O=C(NCC(CCN1CCCC1CN1CCCC1)c1ccc(Cl)c(Cl)c1)Nc1cc(C(F)(F)F)cc(C(F)(F)F)c1 (stereo not shown) [Example 430] |  | 501 to 2500 nM
O=C(NCC(CCNCC1CCCO1)c1ccc(Cl)c(Cl)c1)Nc1cc(C(F)(F)F)cc(C(F)(F)F)c1 (stereo not shown) [Example 431] |  | 501 to 2500 nM
